In US10167283B2, “β-lactamase inhibitors and uses thereof” (priority 2015, dated 2019):
Structures can show the parent of a compound that is named as a salt. Where two headings read alike, the source gives them in different places.

Legend:
Type in all cases: cell-based
[1] = test system: Enterobacter cloacae BAA-2341 (KPC); test: In vitro antibacterial activity, agar dilution MIC; settings: Enterobacter cloacae, BAA2341
Excerpt: (§1) Experimental strains: all experimental standard bacterial strains for enzyme production were purchased from ATCC, and the clinically separated CRE strain was purchased from Southwest Hospital of the Third Military Medical University.
(§2) Experimental Method: Agar dilution method, referring to M100-S23: Performance Standards for Antimicrobial Susceptibility Testing: Twenty-Third Informational Supplement (Clinical And Laboratory Standards Institute, 2013). Minimal inhibitory concentration (MIC, μg/mL) was calculated.

[2] = test system: Enterobacter hormaechei BAA-2082 (KPC); test: In vitro antibacterial activity, agar dilution MIC; settings: Enterobacter hormaechei, BAA2082
Excerpt: as §1, §2

[3] = test system: Escherichia coli BAA-196 (TEM-10); test: In vitro antibacterial activity, agar dilution MIC
Excerpt: as §1, §2

[4] = test system: Escherichia coli BAA-2452 (NDM-1); test: In vitro antibacterial activity, agar dilution MIC
Excerpt: as §1, §2

[5] = test system: Escherichia coli BAA-2523 (OXA-48); test: In vitro antibacterial activity, agar dilution MIC
Excerpt: as §1, §2

[6] = test system: Klebsiella pneumoniae BAA-1900 (KPC); test: In vitro antibacterial activity, agar dilution MIC
Excerpt: as §1, §2

[7] = test system: Klebsiella pneumoniae BAA-2524 (OXA-48); test: In vitro antibacterial activity, agar dilution MIC; settings: Klebsiella pneumoniae, BAA2524
Excerpt: as §1, §2

[8] = test system: Klebsiella oxytoca ATCC-51983 (SHV-5); test: In vitro antibacterial activity, agar dilution MIC; settings: Klebsiella oxytoca, ATCC51983
Excerpt: as §1, §2

[9] = test system: Klebsiella pneumoniae BAA-2146 (NDM-1); test: In vitro antibacterial activity, agar dilution MIC
Excerpt: as §1, §2

[10] = test system: Enterobacter cloacae 7513ecl-314 (AmpC); test: In vitro antibacterial activity on clinically separated CRE strain, agar dilution MIC; settings: first Table 4, 7513ecl-314 Enterobacter cloacae
Excerpt: as §1, §2

[11] = test system: Klebsiella pneumoniae 7463kpn-610 (ESBLs); test: as above; settings: first Table 4, 7463kpn-610 Klebsiella pneumoniae
Excerpt: as §1, §2

[12] = test system: Klebsiella pneumoniae 7484kpn-631 (IMP, ESBLs); test: as above; settings: first Table 4, 7484kpn-631 Klebsiella pneumoniae
Excerpt: as §1, §2

[13] = BAA196, first Table 4, BAA-196 Escherichia coli, TEM-10, read-out: MIC
[14] = BAA2452, first Table 4, BAA-2452 Escherichia coli, NDM-1, read-out: MIC
[15] = BAA2523, first Table 4, BAA-2523 Escherichia coli, OXA-48, read-out: MIC
[16] = BAA1900, first Table 4, BAA-1900 Klebsiella pneumoniae, KPC, read-out: MIC
[17] = BAA2146, first Table 4, BAA-2146 Klebsiella pneumoniae, NDM-1, read-out: MIC

Row | MIC [3, 13] [µg/mL] | MIC [4, 14] [µg/mL] | MIC [5, 15] [µg/mL] | MIC [6, 16] [µg/mL] | MIC [9, 17] [µg/mL] | MIC [10] [µg/mL] | MIC [11] [µg/mL] | MIC [12] [µg/mL] | Structure (SMILES) | MIC [1] [µg/mL] | MIC [2] [µg/mL] | MIC ([3]; BAA196) [µg/mL] | MIC ([4]; BAA2452) [µg/mL] | MIC ([5]; BAA2523) [µg/mL] | MIC ([6]; BAA1900) [µg/mL] | MIC [7] [µg/mL] | MIC [8] [µg/mL] | MIC ([9]; BAA2146) [µg/mL]
1 | – | – | – | – | – | – | – | – | CCN1CC2(CC(NC(=O)[C@@H]3CC[C@@H]4CN3C(=O)N4OS(=O)(=O)O)C2)C1 [Comp. 7 sodium salt, sodium (2S,5R)-2-((2-ethyl-2-azaspiro[3.3]heptan-6-yl)carbamoyl)-7-oxo-1,6-diazabicyclo[3.2.1]octan-6-yl sulfate] | 8 | 8 | 8 | 4 | 4 | 8 | 8 | – | –
2 | – | – | – | – | – | – | – | – | O=C(NC1CC2(C1)CN(C1CC1)C2)[C@@H]1CC[C@@H]2CN1C(=O)N2OS(=O)(=O)O [Compound 13, (2S,5R)-2-(2-cyclopropyl-2-azaspiro[3.3]heptan-6-ylcarbamoyl)-7-oxo-1,6-diazabicyclo[3.2.1]octan-6-yl hydrogen sulfate] | – | 16 | 16 | 4 | 4 | 8 | 4 | 8 | –
3 | – | – | – | – | – | – | – | – | O=C(NC1CC2(C1)CN(CC1CC1)C2)[C@@H]1CC[C@@H]2CN1C(=O)N2OS(=O)(=O)O [Compound 14, sodium (2S,5R)-2-((2-(cyclopropylmethyl)-2-azaspiro[3.3]heptan-6-yl)carbamoyl)-7-oxo-1,6-diazabicyclo[3.2.1]octan-6-yl sulfate] | 8 | 8 | 8 | 2 | 2 | 4 | 4 | 8 | 8
4 | 4 | 4 | 4 | 4 | 2 | 2 | 2 | 2 | O=C(NC1CC2(CNC2)C1)[C@H]1CC[C@@H]2CN1C(=O)N2OS(=O)(=O)O [Compound 2-2, (2R,5R)-2-((2-azaspiro[3.3]heptan-6-yl)carbamoyl)-7-oxo-1,6-diazabicyclo[3.2.1]octan-6-yl hydrogen sulfate] | – | – | – | – | – | – | – | – | –
5 | 8 | 8 | 8 | 8 | 16 | 4 | 8 | 4 | CN1CC2(CC(NC(=O)[C@H]3CC[C@@H]4CN3C(=O)N4OS(=O)(=O)O)C2)C1 [Compound 6-2, (2R,5R)-2-((2-methyl-2-azaspiro[3,3]heptan-6-yl)carbamoyl)-7-oxo-1,6-diazabicyclo[3,2,1]octan-6-yl hydrogen sulfate] | – | – | – | – | – | – | – | – | –
